These are literature values, as cited in US20190374461A1, “Treatment apparatus and mechanisms for an infected nail” (priority 2018, published 2019).

This data set deals with nail infections.

The structures appear in SMILES notation. Where “and” joins values, the source holds several entries; their conditions need not be identical. Equal entries are not always repeated. Structures can show the parent of a compound that is named as a salt. Where two headings read alike, the source gives them in different places.

For the molecule `C[C@@H](n1cnc2cc(Cl)ccc2c1=O)[C@](O)(Cn1cncn1)c1ccc(F)cc1F` [Albaconazole], the “side effects compared with Lamisil” value (in vivo, po) is given as “prone to fewer side effects than Lamisil”. For `CCC(C)(C)c1ccc(CC(C)CN2C[C@@H](C)O[C@@H](C)C2)cc1` (some centres unmarked) [Amorolfine, amorolfine], where the note is “topical, mild nail infections without nail matrix involvement”, the cure rates is reported as 40 to 55%. Also, the “effectiveness against severe nail infections” value (topical, severe nail infections involving the nail bed) is given as “not effective”.

Regarding `Cc1cc(C2CCCCC2)n(O)c(=O)c1` [Ciclopirox, ciclopirox], for the setting “topical, 8% strength”, the cure rate result is reported as “about 8.5%”.

`CN(C/C=C/C#CC(C)(C)C)Cc1cccc2ccccc12` [Lamisil, terbinafine hydrochloride]: under “oral treatment of nail infections”, the mycological cure rate is 46%. Regarding `CC[C@@H]([C@H](C)O)n1ncn(-c2ccc(N3CCN(c4ccc(OC[C@@H]5CO[C@@](Cn6cncn6)(c6ccc(F)cc6F)C5)cc4)CC3)cc2)c1=O` [Posaconazole], the “side effects compared with Lamisil” value (oral treatment) was “prone to fewer side effects than Lamisil”. Turning to `OB1OCc2cc(F)ccc21` [Tavaborole, tavaborole], the “complete cure, share of patients” value (topical, 600 patients in the study) is on record as 6%. For the molecule `C=C1CCN([C@H](C)[C@](O)(Cn2cncn2)c2ccc(F)cc2F)CC1` [efinaconazole], where the note is “topical, only mild infections not involving the nail bed”, the cure rates is 17.8% and 15.2%.
